# Measured values from patent US7405240B2, “Substituted cyclopentanes or cyclopentanones as therapeutic agents” (Allergan, Inc., priority 2006, dated 2008).
# How the values were obtained:
# hEP2 [1] = biological target: T1, hEP2 (Homo sapiens, UniProt P43116); assay: Competition binding, [3H]PGE2, human EP2 receptors; parameters: expressed in transfected cells; host or cells: HEK 293; settings: [3H]PGE2, HEK 293 cells stably expressing human EP2; read-out: hEP2 Ki
# Method in brief: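 HEK 293 membranes or cells stably expressing human EP2 were incubated with 10 nM [3H]PGE2 and test compound in HBSS/20 mM Hepes pH 7.3, 60 min at 23° C, then filtered. Non-specific binding defined with 10 μM PGE2; IC50 from single-site fit converted to Ki using KD 40 nM.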
# [2] = system: laser-induced hypertensive monkeys; assay: Intraocular pressure in laser-induced hypertensive monkeys; type: in vivo, monkey; settings: 0.1%, one single day dose; for change in vivo at 0.1 %: Primates, topical, read-out: maximum IOP decrease from baseline
# Description: (§1) (Z)-7-[(1R,2S,3R,5R)-5-Chloro-2-(3,5-dichloro-phenoxymethyl)-3-hydroxy-cyclopentyl]-hept-5-enoic acid (15b) was tested at multiple concentrations in normotensive dogs, dosing once daily for 5 days. At 0.05%, the maximum IOP decrease from baseline was 4.3 mmHg (30%) at 6 h; the maximum OSH score was 0.6 at 6 h. […] This compound was also tested in laser-induced hypertensive monkeys, using one single day dose. At 0.1%, the maximum IOP decrease from baseline was 6 mmHg (19%) at 6 h.
# (§2) (Z)-7-[(1R,2S,3R,5R)-5-Chloro-2-(3,5-dichloro-phenoxymethyl)-3-hydroxy-cyclopentyl]-hept-5-enoic acid isopropyl ester (42b) was tested in normotensive dogs at 0.05%, dosing once daily for 5 days. The maximum intraocular pressure (IOP) decrease from baseline was 3 mmHg (19%) at 6 h; the maximum ocular surface hyperemia (OSH) score was 0.6 at 74 h. This compound was also tested in laser-induced hypertensive monkeys, using one single day dose. At 0.01%, the maximum IOP decrease from baseline was 6 mmHg (16%) at 6 h.
# hEP2 [3] = biological target: T1, hEP2; assay: cAMP assay, hEP2; type: cell-based
# normotensive dogs = assay: Intraocular pressure and ocular surface hyperemia in normotensive dogs; type: in vivo, dog; parameters: maximum OSH score: scale not given here; settings: 0.1%, once daily for 5 days; for change in vivo at 0.1 %: Canis lupus familiaris, topical, 120 h, read-out: maximum IOP decrease from baseline
# Description: as §1, §2
# hEP4 [4] = biological target: T2, hEP4 (Homo sapiens, UniProt P35408); assay: Radioligand binding, EP4 receptor; parameters: expressed in transfected cells; host or cells: HEK-293; settings: [3H]PGE2, HEK-293 cells expressing EP4
# T2 sequence (P35408 whole entry): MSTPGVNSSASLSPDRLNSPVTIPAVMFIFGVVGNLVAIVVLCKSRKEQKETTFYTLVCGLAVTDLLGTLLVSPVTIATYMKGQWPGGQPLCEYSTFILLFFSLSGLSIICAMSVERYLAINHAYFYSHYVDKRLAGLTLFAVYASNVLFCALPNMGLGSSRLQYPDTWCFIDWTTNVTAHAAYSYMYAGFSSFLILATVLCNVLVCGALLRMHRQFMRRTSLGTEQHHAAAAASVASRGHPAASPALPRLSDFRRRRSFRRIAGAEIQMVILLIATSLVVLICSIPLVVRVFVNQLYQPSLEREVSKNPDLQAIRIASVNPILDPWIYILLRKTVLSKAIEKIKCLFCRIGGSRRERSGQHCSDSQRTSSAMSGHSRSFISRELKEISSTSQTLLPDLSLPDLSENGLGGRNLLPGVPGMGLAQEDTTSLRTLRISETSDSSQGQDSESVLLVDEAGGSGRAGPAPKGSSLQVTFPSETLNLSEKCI
# Method in brief: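 HEK-293 membranes stably expressing human EP4, in TME buffer pH 7.4; competition vs 5 nM [3H]-PGE2, 60 min at 25 °C, stopped by GF/B filtration. Non-specific binding defined with 10^−5 M unlabeled PGE2; duplicates, at least three experiments.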
# hEP2 [5] = biological target: T1, hEP2; assay: FLIPR calcium signal, hEP2; type: cell-based; parameters: expressed in transfected cells; host or cells: HEK-293(EBNA); settings: HEK-293(EBNA) cells expressing hEP2/Gqs5
# Method in brief: (§3)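 HEK-293(EBNA) cells stably expressing a single human prostaglandin receptor (hDP/Gqs5 chimera for DP), Fluo-4 AM loaded, in HBSS-HEPES pH 7.4 at 37 °C. Peak calcium fluorescence scaled to buffer and receptor standard agonist; 10^−5 M single-point or 10^−5–10^−11 M curves, duplicates, n≥3.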
# hEP4 [6] = biological target: T2, hEP4; assay: FLIPR calcium signal, hEP4; type: cell-based; parameters: expressed in transfected cells; host or cells: HEK-293(EBNA); settings: HEK-293(EBNA) cells expressing hEP4/Gqs5
# Method in brief: as §3
# T1 sequence (P43116 whole entry): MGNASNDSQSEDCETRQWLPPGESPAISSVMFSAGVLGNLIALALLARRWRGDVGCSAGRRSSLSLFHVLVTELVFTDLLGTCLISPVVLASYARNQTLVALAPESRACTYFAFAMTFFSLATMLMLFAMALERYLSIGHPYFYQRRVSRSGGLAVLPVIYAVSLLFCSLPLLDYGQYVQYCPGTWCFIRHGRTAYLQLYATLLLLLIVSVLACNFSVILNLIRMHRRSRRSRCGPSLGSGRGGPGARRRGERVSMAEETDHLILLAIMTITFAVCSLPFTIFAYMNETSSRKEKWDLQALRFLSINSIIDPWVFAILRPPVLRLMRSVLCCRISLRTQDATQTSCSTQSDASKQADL
Compound,Ki (hEP2 [1]) [nM],maximum IOP decrease from baseline [2] [mmHg],time of maximum IOP decrease [2] [h],change in vivo at 0.1 % [2] [%],EC50 (hEP2 [3]) [nM],maximum IOP decrease from baseline (normotensive dogs) [mmHg],maximum OSH score (normotensive dogs),time of maximum IOP decrease (normotensive dogs) [h],time of maximum OSH score (normotensive dogs) [h],change in vivo at 0.1 % (normotensive dogs) [%],Ki (hEP4 [4]) [nM],EC50 (hEP2 [5]) [nM],EC50 (hEP4 [6]) [nM]
"Cc1cc(C)cc(OC[C@@H]2[C@@H](C/C=C\CCCC(=O)O)[C@H](Cl)C[C@H]2O)c1 [Example 36, (Z)-7-[(1R,2S,3R,5R)-5-Chloro-2-(3,5-dimethyl-phenoxymethyl)-3-hydroxy-cyclopentyl]-hept-5-enoic acid]",31,9,2,25,1.4,6.5,1.2,52,28,46,1090,27,7720
"O=C(O)CCC/C=C\C[C@@H]1[C@@H](COc2cc(C(F)(F)F)cc(C(F)(F)F)c2)[C@H](O)C[C@H]1Cl [Example 15, (Z)-7-[(1R,2S,3R,5R)-2-(3,5-Bis-trifluoromethyl-phenoxymethyl)-5-chloro-3-hydroxy-cyclopentyl]-hept-5-enoic acid]",8,11,6,30,8,4.8,0.9,100,52,35,2290,11,13000
"O=C(O)CCC/C=C\C[C@@H]1[C@@H](COc2cccc(C(F)(F)F)c2)[C@H](O)C[C@H]1Cl [Example 24, (Z)-7-[(1R,2S,3R,5R)-5-Chloro-3-hydroxy-2-(3-trifluoromethyl-phenoxymethyl)-cyclopentyl]-hept-5-enoic acid]",44,10.8,6,28,2.4,2.5,0.5,78,6,16,1420,66,9870
"O=C(O)CCC/C=C\C[C@@H]1[C@@H](COc2cccc3ccccc23)[C@H](O)C[C@H]1Cl [Example 19, (Z)-7-[(1R,2S,3R,5R)-5-Chloro-3-hydroxy-2-(naphthalen-1-yloxymethyl)-cyclopentyl]-hept-5-enoic acid]",17,11.8,6,31,2,5.8,0.8,6,54,41,315,3,115
